# Source: patent publication US6486147B2, “Cosmetic composition containing a steroid and a 2-alkylalkanol or an ester thereof” (L'Oreal, priority 2000, dated 2002)
# Assay: Solubility of DHEA in various conventional solubilizing agents
# Assay type: physicochemical
# Settings: for Solubility after one month (AT): ambient temperature
# Protocol: The solubility of DHEA in various conventional solubilizing agents is mentioned in Table 2 below by way of comparison (the percentage of DHEA is calculated with respect to the total weight of DHEA and of solvent; AT refers to ambient temperature): […]
# [1] = solvent Benzoate of C12-15 alcohols, 3% DHEA
# [2] = solvent Propylene glycol, 5-10% DHEA
# [3] = solvent Propylene glycol, 15-20% DHEA
structure (smiles),measurement,setting,value
"C[C@]12CC[C@H](O)CC1=CC[C@@H]1[C@@H]2CC[C@]2(C)C(=O)CC[C@@H]12 [DHEA, dehydroepiandrosterone]",Solubility,[1],Soluble at 50 °C
same,Solubility after one month (AT),[1],Crystals
same,Solubility,"solvent Dodecanol, 10% DHEA",Insoluble even at
same,Solubility after one month (AT),"solvent Dodecanol, 10% DHEA",Crystals
same,Solubility,"solvent Phenoxyethanol, 20% DHEA (of total weight of DHEA and solvent)",Soluble at AT
same,Solubility after one month (AT),"solvent Phenoxyethanol, 20% DHEA",Crystals
same,Solubility,[2],Soluble at 50 °C
same,Solubility after one month (AT),[2],Crystals
same,Solubility,[3],Insoluble at AT
same,Solubility after one month (AT),[3],Crystals
